Experimental data: article PMC8747069, “Sesquiterpene Lactones with Dual Inhibitory Activity against the Trypanosoma brucei Pteridine Reductase 1 and Dihydrofolate Reductase” (Molecules, 2021)
Like-named read-outs stand apart in the source and are kept apart here.

Legend:
[1] = target: TbDHFR (Trypanosoma brucei brucei, UniProt Q27783); assay: Spectrophotometric inhibition assay with recombinant TbDHFR; type: biochemical; settings: for inhibition at 50 µM / TbDHFR Inhibition at 50 µM (%): NADPH 150 µM, DHF 50 µM
Chain of TbDHFR (Q27783 28-238 limits assumed): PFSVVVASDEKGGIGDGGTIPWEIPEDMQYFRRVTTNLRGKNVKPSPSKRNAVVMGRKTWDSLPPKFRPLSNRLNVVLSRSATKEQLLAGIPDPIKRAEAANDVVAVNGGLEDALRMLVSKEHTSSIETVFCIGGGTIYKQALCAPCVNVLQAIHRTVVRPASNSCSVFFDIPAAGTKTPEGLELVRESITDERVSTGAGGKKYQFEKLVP
Experimental: Kinetic analysis of TbDHFR was performed according to 4.5. All measurements were carried out as triplicates using buffer B (50 mM Tris/HCl (pH 7.6), 250 mM NaCl, 10 mM BME).
(§1) The concentration of TbDHFR was 0.04 mg/mL with a specific activity of 38.1 U/mg. All experiments were carried out using the saturating concentrations of dihydrofolate (DHF, 50 µM) and NADPH (150 µM). The diagrams for the determination of the saturating conditions are depicted in the Supplementary Materials Figure S16.
(§2) All measurements were carried out as duplicates and compared with a reference containing no inhibitor. The reference measurements were used to determine the full catalytic activity of the respective enzyme (100%), and the relative catalytic activity of all following measurements including inhibitors was calculated accordingly.
(§3) The compounds that were able to inhibit the activity of TbPTR1 or TbDHFR ≥ 50% in the single concentration assays were further investigated by the determination of their half maximal inhibitory concentration (IC50), including at least five inhibitor concentrations. If a complete inhibition of the enzyme could not be achieved experimentally due to the given assay conditions, the half maximal effective concentration (EC50) was determined instead. All measurements were carried out as triplicates against a reference containing no inhibitor at saturating conditions (Section 4.8.). The documented enzyme activity was analysed by nonlinear regression using GraphPad Prism 8 (GraphPad Software Inc., La Jolla, CA, USA).

[2] = tested on: T. brucei rhodesiense; settings: in vitro growth inhibition; cited from earlier work
[3] = target: T1, TbPTR1 (Trypanosoma brucei brucei, UniProt O76290); assay: Spectrophotometric inhibition assay with recombinant TbPTR1; type: biochemical; settings: for inhibition at 100 µM: read-out: TbPTR1 Inhibition at 100 µM (%); for EC50: EC50 reported because complete inhibition not reached (solubility issues), read-out: TbPTR1 EC50 (footnote a in IC50 column)
T1 sequence (O76290 1-268): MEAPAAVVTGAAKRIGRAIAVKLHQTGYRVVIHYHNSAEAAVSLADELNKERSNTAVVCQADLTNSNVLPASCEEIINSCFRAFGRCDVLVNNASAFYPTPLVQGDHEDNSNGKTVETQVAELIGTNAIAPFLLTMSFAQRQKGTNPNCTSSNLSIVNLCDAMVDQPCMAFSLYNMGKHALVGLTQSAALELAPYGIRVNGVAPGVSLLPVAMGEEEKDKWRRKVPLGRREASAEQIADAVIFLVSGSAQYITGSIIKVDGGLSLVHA
Experimental: The concentration and the activity of TbPTR1, as well as the saturating conditions of its substrate and co-substrate were determined by monitoring the oxidation of the co-substrate NADPH to NADP^+ via UV/Vis spectroscopy (Hitachi U-2900, Tokyo, Japan). […] The experiments were carried out as triplicates using buffer A (50 mM Tris/HCl (pH 7.6), 250 mM NaCl).
as §1, with “TbPTR1” for “TbDHFR”, “3.23 mg/mL. Its” for “0.04 mg/mL with a”, “was calculated to be 0.03” for “of 38.1”, “folic acid (8” for “dihydrofolate (DHF, 50”, “S15.” for “S16.”
as §2, §3

[4] = tested on: T. brucei; set-up: method as in PMID 22331812; settings: acute mouse model; cited from earlier work
[5] = 50 µM compound, read-out: TbDHFR Inhibition at 50 µM (%)
[6] = 100 µM compound, NADPH 150 µM, folic acid 8 µM

| Structure (SMILES) | inhibition at 50 µM [1, 5] [%] | inhibition at 100 µM [3, 6] [%] | IC50 [2] [µM] | further results |
| --- | --- | --- | --- | --- |
| C=C(CO)C(=O)O[C@H]1CC(=C)[C@@H]2C[C@H](O)C(=C)[C@@H]2[C@H]2OC(=O)C(=C)[C@@H]21 [Compound 2, cynaropicrin] |  |  | 0.3 | IC50 [1]: 7.1 µM; IC50 [3]: 12.4 µM; inhibition at 100 µM [3]: 92.1%; in vivo activity against the parasite [4]: in vivo activity against the parasite |
| C=C1C(=O)O[C@@H]2/C=C(/CO)C3=CC(=O)[C@@](C)(C[C@@H](OC(=O)/C(C)=C\C)[C@@H]12)O3 [Compound 4] | 34.9 | 79.9 | 0.1 | IC50 [3]: 30.5 µM |
| C=C1C(=O)O[C@@H]2/C=C(\CO)CC/C=C(\C)C[C@H](OC(=O)C(=C)[C@H](O)CO)[C@@H]12 [Compound 1, cnicin] | 15.2 | 63.9 | 0.4 | EC50 [3]: 21.2 µM |
| C=C1C(=O)OC2C=C(C)C(OC(C)=O)CC=C(C)CC(OC(=O)C(=CCO)CO)C12 (stereo not shown) [Compound 5, (Z)-eucannabinolide] |  | 58.1 | 1.7 | TbDHFR Inhibition at 50 µM (%) ([1]; 50 µM compound): No TbDHFR inhibition could be detected and n.i.; EC50 [3]: 31.5 µM |
| C=C1C(=O)OC2C1CC(OC(=O)C(C)C(C)O)C(C)=CCCC1(C)OC21 (stereo not shown) [Compound 3] | > 50 | 73.1 | 1.3 | IC50 ([1]; saturating conditions, nonlinear regression, read-out: TbDHFR IC50): 13.3 µM; IC50 ([3]; saturating conditions, nonlinear regression, read-out: TbPTR1 IC50): 40.5 µM |
| C=C1C(=O)O[C@@H]2/C=C(\C)C[C@H](O)/C=C(\C)C[C@@H](OC(=O)/C(=C\C)COC(C)=O)[C@@H]12 [Compound 7] |  |  | 1.6 | inhibition at 50 µM ([1]; read-out: TbDHFR Inhibition at 50 µM (%), 50 µM compound): 48.7%; inhibition at 100 µM [3]: 25.6% |
| C=C1C(=O)OC2C=C(C)C(OC(=O)C(O)C(C)C)CC=C(C)CC(OC(=O)C(=CCO)CO)C12 (stereo not shown) [Compound 6] |  | 33.1 | 0.8 | TbDHFR Inhibition at 50 µM (%) ([1]; 50 µM compound): n.i. |

Now from value to compound, other results behind:

| inhibition at 50 µM [1, 5] [%] | inhibition at 100 µM [3, 6] [%] | Structure (SMILES) | IC50 [2] [µM] | further results |
| --- | --- | --- | --- | --- |
| 40.7 | 14.2 | C=C1C(=O)O[C@H]2[C@H]1[C@H](OC(=O)/C(=C/COC(=O)C(O)C(C)C)CO)C[C@]1(C)[C@@H]2[C@H](C)C(=O)C[C@H]1O (stereo partly shown) [Compound 8] | 2.7 |  |
| 20.1 | 26.7 | C=C1C(=O)OC2C=C(C)C(O)CC=C(C)CC(OC(=O)C(=CCOC(=O)C(O)C(C)CC)CO)C12 (stereo not shown) [Compound 10] | 4 |  |
| 95.9 | 28.5 | C=C1C(=O)OC2C=C(C)C(O)CC=C(C)CC(OC(=O)C(=CCOC(=O)C(O)C(C)C)CO)C12 (stereo not shown) [Compound 9] | 2.6 |  |
